Numbered stars: 1 amine (or outer) side, 2 acyl side, 3 side chain; on linkers, the order of the positions; unused ones are H or OH. Square brackets hold non-standard residues; d marks the D form. Peptide text beside a SMILES is read from it. * marks the point of attachment. pY = N[C@@H](Cc1ccc(OP(=O)(O)O)cc1)C(=O)O; NH(CH2)9CO = O=C(CCCCCCCCCN[*:1])[*:2]; Nonanoyl = CCCCCCCCC(=O)*; Hexanoyl = CCCCCC(=O)*; Ahp = NCCCCCCC(=O)O
test: Association constant Ka of the compound; format: physicochemical

Row | Structure (SMILES) | Ka
1 | CC(C)[C@@H]1NC(=O)[C@H](CC(N)=O)NC(=O)[C@H](C(C)C)NC(=O)[C@H](Cc2ccc(OP(=O)(O)O)cc2)NC(=O)CCCCCCNC1=O (cyclo([Ahp][pY]VNV)) | 2.3 ×10⁶ /M
2 | CC(C)[C@@H]1NC(=O)[C@H](Cc2ccc(OP(=O)(O)O)cc2)NC(=O)CCCCCCNC(=O)CNC(=O)[C@H](CC(N)=O)NC1=O (cyclo([Ahp][pY]VNG)) | 4.7 ×10⁴ /M
3 | CC(C)[C@@H]1NC(=O)[C@H](Cc2ccc(OP(=O)(O)O)cc2)NC(=O)CCCCCCCCCNC(=O)CNC(=O)[C@H](CC(N)=O)NC1=O (cyclo(G[NH(CH2)9CO][pY]VN)) | 8.5 ×10⁵ /M
4 | CC(C)[C@@H]1NC(=O)[C@H](Cc2ccc(OP(=O)(O)O)cc2)NC(=O)CCCCCCNC(=O)[C@@H]2CCCN2C(=O)[C@H](C(C)C)NC(=O)[C@H](CC(N)=O)NC1=O (cyclo([Ahp][pY]VNVP)) | 1 ×10⁷ /M

Next, values leading:

Row | Ka | Structure (SMILES)
5 | 6.5 ×10⁶ /M | CCCCCC(=O)N[C@@H](Cc1ccc(OP(=O)(O)O)cc1)C(=O)N[C@H](C(=O)N[C@@H](CC(N)=O)C(=O)N[C@H](C(=O)N1CCC[C@H]1C(=O)NC)C(C)C)C(C)C (Hexanoyl-[pY]VNVP-NHMe)
6 | 5.7 ×10⁵ /M | CCCCCCCCC(=O)N[C@@H](Cc1ccc(OP(=O)(O)O)cc1)C(=O)N[C@H](C(=O)N[C@@H](CC(N)=O)C(=O)NCC(=O)NC)C(C)C (Nonanoyl-[pY]VNG-NHMe)
7 | 2.3 ×10⁶ /M | CCCCCC(=O)N[C@@H](Cc1ccc(OP(=O)(O)O)cc1)C(=O)N[C@H](C(=O)N[C@@H](CC(N)=O)C(=O)N[C@H](C(=O)NC)C(C)C)C(C)C (Hexanoyl-[pY]VNV-NHMe)
8 | 4.1 ×10⁵ /M | CCCCCC(=O)N[C@@H](Cc1ccc(OP(=O)(O)O)cc1)C(=O)N[C@H](C(=O)N[C@@H](CC(N)=O)C(=O)NCC(=O)NC)C(C)C (Hexanoyl-[pY]VNG-NHMe)
